The values that follow come from patent publication EP4703358A1, “BENZO SIX-MEMBERED HETEROCYCLIC GSPT1 PROTEIN DEGRADATION AGENT AND USE THEREOF” (China Pharmaceutical University, priority 2023, dated 2024).

The half-life is how long it takes for the measured level to halve. One may read the microsomal CLint as the capacity of the preparation to metabolise the compound, expressed as a volume cleared per time. A word on the IC50: it is the concentration needed to halve the response being measured. The AUC(0-inf) is total exposure, with the tail of the curve extrapolated. As a reminder, the AUC(0-t) is the area under the concentration-time curve up to a stated or last time point. Broadly, the Vd is the apparent volume that relates the amount in the body to the concentration in plasma or blood. For orientation: clearance means a measure of how efficiently the substance is removed, as volume per time. For orientation: Cmax means the highest concentration seen after dosing. For orientation: Tmax means the time from dosing to the highest level.

The structures appear in SMILES notation. Where two headings read alike, the source gives them in different places. Some results are limits rather than exact numbers.

The target of one data set is T1, GSPT1 protein (Homo sapiens, UniProt P15170+Q96SW2).
T1 construct: host or cells: KG-1 cells
T1 sequence (P15170 whole entry): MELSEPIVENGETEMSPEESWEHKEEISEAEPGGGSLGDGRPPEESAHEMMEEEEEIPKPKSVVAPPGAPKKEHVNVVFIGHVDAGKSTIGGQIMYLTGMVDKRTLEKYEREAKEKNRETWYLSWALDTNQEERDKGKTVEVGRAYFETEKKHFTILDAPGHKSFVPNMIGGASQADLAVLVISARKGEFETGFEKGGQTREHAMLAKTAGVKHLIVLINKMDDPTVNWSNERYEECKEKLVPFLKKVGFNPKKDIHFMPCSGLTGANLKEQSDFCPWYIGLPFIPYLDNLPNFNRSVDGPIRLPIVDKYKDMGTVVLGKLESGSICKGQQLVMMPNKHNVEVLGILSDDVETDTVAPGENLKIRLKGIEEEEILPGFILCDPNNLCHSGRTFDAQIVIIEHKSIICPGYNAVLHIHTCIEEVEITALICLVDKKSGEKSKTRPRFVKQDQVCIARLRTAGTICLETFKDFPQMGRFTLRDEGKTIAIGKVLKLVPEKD
T1 sequence (Q96SW2 whole entry): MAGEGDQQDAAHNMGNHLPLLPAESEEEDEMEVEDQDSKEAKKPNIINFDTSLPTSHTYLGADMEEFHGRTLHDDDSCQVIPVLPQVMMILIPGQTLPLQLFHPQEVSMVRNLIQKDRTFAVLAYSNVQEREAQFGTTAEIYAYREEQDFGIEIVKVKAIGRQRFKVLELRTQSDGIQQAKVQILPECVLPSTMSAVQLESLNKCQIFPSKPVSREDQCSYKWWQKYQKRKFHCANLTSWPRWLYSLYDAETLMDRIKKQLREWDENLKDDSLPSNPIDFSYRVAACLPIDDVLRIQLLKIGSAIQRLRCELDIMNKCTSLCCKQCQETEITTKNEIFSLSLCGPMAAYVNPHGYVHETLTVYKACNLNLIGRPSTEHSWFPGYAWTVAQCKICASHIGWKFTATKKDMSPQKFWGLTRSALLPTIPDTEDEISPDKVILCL
T1 sequence (Q16531 whole entry partner): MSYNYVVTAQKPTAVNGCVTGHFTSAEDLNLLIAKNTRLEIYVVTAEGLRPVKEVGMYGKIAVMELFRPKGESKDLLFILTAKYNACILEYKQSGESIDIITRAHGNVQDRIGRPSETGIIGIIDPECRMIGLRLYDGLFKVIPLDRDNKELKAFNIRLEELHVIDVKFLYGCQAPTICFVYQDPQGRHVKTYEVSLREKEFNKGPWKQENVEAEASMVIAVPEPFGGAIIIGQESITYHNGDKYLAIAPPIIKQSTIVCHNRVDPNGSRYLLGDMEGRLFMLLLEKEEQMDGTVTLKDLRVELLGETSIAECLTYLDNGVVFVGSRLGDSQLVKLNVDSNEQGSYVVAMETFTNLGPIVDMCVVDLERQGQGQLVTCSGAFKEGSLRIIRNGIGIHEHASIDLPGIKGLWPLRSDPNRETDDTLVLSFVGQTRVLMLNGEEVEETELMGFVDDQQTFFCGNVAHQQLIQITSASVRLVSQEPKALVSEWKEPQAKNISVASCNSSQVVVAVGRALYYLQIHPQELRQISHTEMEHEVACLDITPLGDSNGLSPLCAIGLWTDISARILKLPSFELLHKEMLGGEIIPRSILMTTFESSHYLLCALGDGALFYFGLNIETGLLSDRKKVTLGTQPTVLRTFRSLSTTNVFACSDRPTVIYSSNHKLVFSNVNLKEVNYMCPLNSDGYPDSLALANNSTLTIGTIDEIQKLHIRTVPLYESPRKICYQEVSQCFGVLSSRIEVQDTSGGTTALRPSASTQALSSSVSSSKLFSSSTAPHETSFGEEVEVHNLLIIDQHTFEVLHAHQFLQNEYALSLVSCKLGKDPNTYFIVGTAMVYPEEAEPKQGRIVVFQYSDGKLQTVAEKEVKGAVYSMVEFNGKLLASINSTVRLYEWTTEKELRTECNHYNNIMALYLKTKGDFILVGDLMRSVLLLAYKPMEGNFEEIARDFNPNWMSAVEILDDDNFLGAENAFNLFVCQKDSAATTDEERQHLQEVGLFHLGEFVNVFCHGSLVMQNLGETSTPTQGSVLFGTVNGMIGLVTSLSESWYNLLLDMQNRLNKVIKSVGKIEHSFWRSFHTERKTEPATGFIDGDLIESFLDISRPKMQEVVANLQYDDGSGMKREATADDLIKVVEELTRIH
The experiment in a line: Degradation of GSPT1 in KG-1 cells (Western blot). It counts as cell-based. Set-up: percent GSPT1 degradation: dose or concentration left out as unconfirmed.

The next data set is described as follows: in vitro. The settings on record: rat, microsomes.
For a further data set, the system named is MOLM-13. Briefly: Antiproliferative activity against tumor cells (CCK8), MOLM-13. In kind it is cell-based. The conditions noted are these: Homo sapiens, MOLM-13 cells, 72 hours. The method, then: (§1) U937, MOLM-13, and MV4-11 cells (ATCC) in the logarithmic growth phase were separately diluted in a culture medium and plated onto 96-well plates at 5000 cells/well, and the plates were incubated in an incubator at 37 °C with 5% CO2 for 24 hours. 10 mM stock solutions of the compounds in DMSO were prepared and diluted with the culture medium to set 9 concentration gradients. Three replicate wells were set for each concentration. After compound addition, the plates were incubated in an incubator at 37 °C with 5% CO2 for 72 hours. The cell proliferation was assessed using the CCK8 method. The cell growth inhibition IC50 values of the compounds were determined using an enzyme labeling method. The IC50 values were calculated using GraphPad Prism 7 software.
(§2) The antiproliferative activity of the compounds against the tumor cells is shown in Table 3, where A represents IC50 < 1 nM, B represents 1 ≤ IC50 < 10 nM, C represents 10 nM ≤ IC50 < 100 nM, D represents 100 nM ≤ IC50 < 1000 nM, and E represents IC50 ≥ 1000 nM. Table 3. The antiproliferative activity of compounds against tumor cells

For data set [1] the following is noted: male, SD, rat, in vivo, po, 10 mg/kg.
Experimental: (§3) Sample collection and preparation: After SPF SD rats (male, 210-230 g, 42-48 days, RILD Liver) in a good growth state were dosed intravenously at 2 mg/kg and orally at 10 mg/kg, blood samples were collected via the orbit at different blood collection time points and transferred to centrifuge tubes containing an anticoagulant; the intravenous blood collection time points were 0.08 hours, 0.25 hours, 0.5 hours, 1 hour, 2 hours, 4 hours, 6 hours, 8 hours, and 24 hours, and the oral blood collection time points were 0.25 hours, 0.5 hours, 1 hour, 2 hours, 4 hours, 6 hours, 8 hours, and 24 hours. The blood samples were immediately centrifuged at 4 °C and 8000 rpm for 10 minutes, and the plasma was collected and stored in an ultra-low-temperature freezer at -80 °C until it was analyzed by LC-MS/MS. Pharmacokinetic data analysis: Pharmacokinetic parameters of the compounds were calculated using pharmacokinetic software in a non-compartmental model. The peak plasma concentration (Cmax) and the time to reach the peak plasma concentration (Tmax) were taken as observation values. Parameters such as the half-life T1/2, the areas under the plasma concentration-time curve AUClast and AUCinf, the apparent volume of distribution Vss, and the clearance rate CL were determined through regression analysis of the linear terminal portion of the logarithmic plasma concentration-time curve and the linear trapezoidal rule.
For the next data set, the system named is U937. The experiment in a line: Antiproliferative activity against tumor cells (CCK8), U937. In kind it is cell-based. The settings on record: Homo sapiens, U-937, 72 hours. As to the method:
as §1, §2

A short description of another data set: in vivo. The conditions noted are these: male, SD, rat.
The next data set has as its system KG-1 cells. The experiment in a line: Antiproliferative activity against KG-1 cells (CCK8). It counts as cell-based. The settings on record: Homo sapiens, 72 hours. The method in brief:
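Cells seeded at 5000/well in RPMI + 10% FBS, grown 24 h at 37 °C/5% CO2, then exposed to a 9-point dilution series (triplicate wells) for 72 h. Viability read by CCK8; IC50 calculated from growth inhibition.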

The test system of the next data set is MV4-11. The experiment in a line: Antiproliferative activity against tumor cells (CCK8), MV4-11. In kind it is cell-based. The conditions noted are these: Homo sapiens, MV4-11 cells, 72 hours. As to the method:
as §1, §2

Data set [2] in a line: In vivo pharmacokinetic study in rats. The conditions noted are these: rat.
Experimental: as §3
Data set [3] concerns human leukemia cells MV411. Briefly: In vivo pharmacodynamic study in MV411 acute myeloid leukemia xenograft mouse model. More on the design: species or system BABL/c Nude mouse. The settings on record: once daily by oral gavage. The method, then: The human leukemia cells MV411 (Cell Bank, Chinese Academy of Sciences) used in this experiment were cultured in an IMDM culture medium supplemented with 10% FBS in an incubator containing CO2 at 37 °C. Before the cells were continuously sub-cultured to the tenth generation, MV411 cells in the logarithmic growth phase were used, and the cell concentration was adjusted to 1 × 10^8 cells/mL with a serum-free culture medium. Each BABL/c Nude mouse (Jiangsu GemPharmatech Co., Ltd., female, 4-6 weeks old, 14-16 g) was inoculated with 100 µL of the cell suspension by subcutaneous injection on the right dorsal side (near the axilla) under sterile conditions. When the mean tumor volume of the tumor-bearing mice reached approximately 100 mm^3, the mice were randomly divided into groups, with the tumor volume in each group being roughly the same. The day of grouping and administration was defined as day 0. The animals in each treatment group were given a compound once daily by oral gavage at 15 mg/kg, 30 mg/kg, or 60 mg/kg. The body weight and tumor volume of the animals were measured every other day.
Experimental indicator: The anti-tumor efficacy of the compounds was evaluated using the relative tumor growth inhibition rate (TGI). Tumor weight TGI (%) = {1 - [(final average tumor weight of experimental group)/(final average tumor weight of control group of tumor-bearing mice without administration)]} × 100%. Tumor volume TGI (%) = [1 - relative tumor volume of experimental group/relative tumor volume of control group of tumor-bearing mice without administration] × 100%.

Data set [4] can be described thus: Metabolic stability in in vitro rat liver microsomes. The settings on record: rat.
Experimental: 10 mM stock solutions of the test compounds in DMSO were prepared, diluted with acetonitrile and then with PBS, and vortexed, with the DMSO content controlled at 0.1%. The dilute working solutions (10 µL) were incubated with 65 µL of a liver microsome system (30 µL of 100 mM PBS, 25 µL of 20 mM MgCl2, and 10 µL of 5 mg/mL RLMs) and preheated at 37 °C for 5 min. 25 µL of 4 mM NADPH was added to start a reaction. Samples were taken at different time points (0 min, 5 min, 15 min, 30 min, 60 min, and 120 min), and an acetonitrile solution containing an internal standard was added to stop the reaction. After vortexing and centrifugation, the supernatants were collected and analyzed by LC-MS/MS, and the half-lives and clearance rates were calculated.

On GSPT1 protein (KG-1 cells, compound concentration 200 nM, 4 hours), `O=C1CCC(N2Cc3cc(CNC(=O)C(F)(F)c4ccc(Cl)cc4)ccc3C2=O)C(=O)N1` (centres unmarked) [CC-90009] yielded a percent GSPT1 degradation at 0.2 µM of 50 to 80%. In addition, in the data set “in vitro”, the half-life worked out at 1.29 h and the intrinsic metabolic clearance (microsomal CLint) turned out to be 17.9 µL/min/mg. In addition, in the data set on MOLM-13, the half-inhibitory concentration (IC50) was 100 to 1000 nM. In data set [1], this compound came in with an F of 31.2±9.1%. The compound further displayed an IC50 in the data set on U937 of 10 to 100 nM. Further, in “in vivo” (iv, 2 mg/kg), the total exposure AUC(0-inf) was determined as 1200 ± 304 ng·h/mL, the AUC(0-t) was 1200 ng·h/mL, the C0 is 1870 ± 492 ng/mL and the distribution volume (Vd) was 2.85 ± 0.63 L/kg. In the data set “in vivo” (iv, 2 mg/kg), this compound had a clearance of 28.8 ± 6.4 mL/min/kg and a half-life of 1.44 ± 0.26 h. In the data set “in vivo” (po, 10 mg/kg), the AUC(0-inf) was 1896 ± 14 ng·h/mL, the exposure AUC(0-t) stood at 1892 ± 12 ng·h/mL, the highest level (Cmax) was 616 ± 53 ng/mL and the Tmax amounted to 1.5 ± 0.71 h. The half-life in the data set “in vivo” (po, 10 mg/kg) is 2.91 ± 0.28 h. In the data set on KG-1 cells, this compound came in with a concentration for half-maximal inhibition (IC50) of 10 to 100 nM. The compound further showed a concentration for half-maximal inhibition (IC50) in the data set on MV4-11 of 10 to 100 nM.

In data set [2] (male, SD, plasma, iv, 2 mg/kg), `O=C1CCC(N2Cc3cc(CNC(=O)C4=Cc5cc(OC(F)(F)F)ccc5OC4)ccc3C2=O)C(=O)N1` (centres unmarked) [Compound A-10, N-((2-(2,6-Dioxopiperidin-3-yl)-1-oxoisoindolin-5-yl)methyl)-6-trifluoromethoxy-2H-chromene-3-carboxamide] returned an AUC(0-inf) of 4350 ± 1200 ng·h/mL, an exposure AUC(0-t) of 4310 ± 1200 ng·h/mL, a C0 of 16700 ± 4330 ng/mL and a Vd of 0.42 ± 0.13 L/kg. In data set [2] (male, SD, plasma, iv, 2 mg/kg), this compound showed a clearance of 8.1 ± 2.5 mL/min/kg and a half-life of 1.53 ± 0.29 h. Also, in data set [2] (male, SD, plasma, po, 10 mg/kg), the AUC(0-inf) amounted to 4980 ± 2740 ng·h/mL, the AUC(0-t) is 4950 ± 2770 ng·h/mL, the concentration peaked (Cmax) at 3460 ± 1540 ng/mL and the Tmax amounted to 0.33 ± 0.14 h. This compound also gave a half-life in [2] (male, SD, plasma, po, 10 mg/kg) of 3.03 ± 0.63 h. In data set [2] (PO 10mg/kg), this compound yielded an F of 22.9±12.6%. The “exposure level relative to CC-90009” value in data set [2] (administered orally) is listed as “nearly three times”. In [2] (intravenous injection), the “clearance rate relative to CC-90009” value is recorded as “one third” and the “plasma drug exposure level relative to CC-90009” value is given as “nearly four times”. In addition, at GSPT1 protein (KG-1, 4 h, read-out: GSPT1 degradation), the percent GSPT1 degradation is above 80%. Further, on GSPT1 protein (KG-1 and MV4-11 cells, FIGs. 1 and 2), the “degradation of GSPT1 in KG-1 and MV4-11 cells” value is “concentration-dependent and time-dependent”. The “percentage of degradation of GSPT1 protein” value on GSPT1 protein (KG-1 cells, 200 nM, 4 hours) is recorded as “higher than 80%”. This compound came in with an IC50 in the data set with MOLM-13 of 1 to 10 nM. Also, in the data set on U937, the half-inhibitory concentration (IC50) is 1 to 10 nM. For the same compound, in data set [3], the “weight loss in mice” value was “no significant weight loss”. In data set [4], the half-life turned out to be 2.77 h and the microsomal CLint is 8.35 µL/min/mg. For the same compound, the IC50 in the data set on KG-1 cells lay in the range of 10 to 100 nM. In addition, the 50% inhibitory concentration (IC50) in the data set with MV4-11 fell in the range of 10 to 100 nM.
